Experimental data reported in ChEMBL document CHEMBL5550099, “Synthesis and biological activity of 11-Oxygenated and heterocyclic estrone analogs in pancreatic cancer monolayers and 3D spheroids” (Bioorg Med Chem, 2024).
Calls of active or inactive are those of the source. The rule behind the calls is not given here.

Columns and labels:
ASPC1 = experiment: Cytotoxicity against human ASPC1 cells incubated for 48 hrs by MTT assay; format: functional, cell-based; conditions: ASPC1, 48 h
PANC-1 [1] = experiment: Cytotoxicity against human PANC-1 cells incubated for 48 hrs by MTT assay; format: functional, cell-based; conditions: PANC-1, 48 h
BXPC-3 = experiment: Cytotoxicity against human BXPC-3 cells incubated for 48 hrs by MTT assay; format: functional, cell-based; conditions: BXPC-3, 48 h
PANC-1 [2] = experiment: Cytotoxicity against human PANC-1 cells cultured as 3D spheroids incubated for 48 hrs by Cell-titer glo luminescence assay; format: functional, cell-based; conditions: PANC-1, 48 h
PANC-1 [3] = experiment: Cytotoxicity against human PANC-1 cells co-cultured with human pancreatic stellate cells incubated for 48 hrs by Cell-titer glo luminescence assay; format: functional, cell-based; conditions: PANC-1, 48 h
PANC-1 [4] = experiment: Induction of apoptosis in human PANC-1 cells cultured as 3D spheroids assessed as fold increase in caspase-3/7 activity at 0.1 uM incubated for 48 hrs by Glo-max luminescence assay; format: functional
PANC-1 [5] = experiment: Induction of apoptosis in human PANC-1 cells cultured as 3D spheroids assessed as decrease in caspase-3/7 activity by measuring reduction in cell number at 1 to 10 uM incubated for 48 hrs by Glo-max luminescence assay; format: functional, cell-based; conditions: dose 1-10 µM
PANC-1 [6] = experiment: Induction of cell cycle arrest in human PANC-1 cells assessed as accumulation of cells at G1 phase at IC50 measured after 72 hrs by propidium iodide/RNase 141 staining based flow cytometry; format: functional
PANC-1 [7] = experiment: Cytotoxicity against human PANC-1 cells cultured as 3D spheroids assessed as inhibition of spheroid growth rate at 10 uM measured every two days by microscopic analysis; format: functional, cell-based
PANC-1 [8] = experiment: Cytotoxicity against human PANC-1 cells co-cultured with human pancreatic stellate cells assessed as inhibition of spheroid growth rate at 10 uM measured every two days by microscopic analysis; format: functional, cell-based
PANC-1 [9] = experiment: Cytotoxicity against human PANC-1 cells co-cultured with human pancreatic stellate cells incubated for 48 hrs by MTT assay; format: functional, cell-based
PANC-1 [10] = experiment: Induction of apoptosis in human PANC-1 cells co-cultured with human pancreatic stellate cells assessed as fold increase in caspase-3/7 activity at 0.1 uM incubated for 48 hrs by Glo-max luminescence assay; format: functional
PANC-1 [11] = experiment: Induction of apoptosis in human PANC-1 cells co-cultured with human pancreatic stellate cells assessed as decrease in caspase-3/7 activity by measuring reduction in cell number at 1 to 10 uM incubated for 48 hrs by Glo-max luminescence assay; format: functional, cell-based; conditions: dose 1-10 µM
PANC-1 [12] = experiment: Induction of cell cycle arrest in human PANC-1 cells assessed as accumulation of cells at G2 phase at IC50 measured after 72 hrs by propidium iodide/RNase 141 staining based flow cytometry; format: functional
PANC-1 [13] = experiment: Induction of apoptosis in human PANC-1 cells cultured as 3D spheroids assessed as increase in caspase-3/7 activity upto 50 uM incubated for 48 hrs by Glo-max luminescence assay relative to control; format: functional; conditions: up to 50 µM
PANC-1 [14] = experiment: Cytotoxicity against human PANC-1 cells cultured as 3D spheroids assessed as reduction in spheroid growth rate at 0.1 to 100 uM measured every two days by microscopic analysis; format: functional, cell-based; conditions: dose 0.1-100 µM
PANC-1 [15] = experiment: Cytotoxicity against human PANC-1 cells co-cultured with human pancreatic stellate cells assessed as reduction in spheroid growth rate at 0.1 to 100 uM measured every two days by microscopic analysis; format: functional, cell-based; conditions: dose 0.1-100 µM
PANC-1 [16] = experiment: Induction of apoptosis in human PANC-1 cells co-cultured with human pancreatic stellate cells assessed as increase in caspase-3/7 activity upto 50 uM incubated for 48 hrs by Glo-max luminescence assay relative to control; format: functional; conditions: up to 50 µM

COc1ccc2c(c1)CC[C@@H]1[C@@H]2C(=O)C[C@]2(C)C([C@@](C)(O)C(=O)/C=C/c3ccc(C(F)(F)F)cc3)CC[C@@H]12 (some centres undefined)
IC50 (ASPC1): 4.17 µM | IC50 (PANC-1 [1]): 5.28 µM | IC50 (BXPC-3): 5.7 µM | IC50 (PANC-1 [2]): 21 µM | IC50 (PANC-1 [3]): 24.3 µM | fold change (FC) (PANC-1 [4]): 1.5 | Activity (PANC-1 [5]): Active | Activity (PANC-1 [6]): Active | Activity (PANC-1 [7]): Active | Activity (PANC-1 [8]): Active | Activity (PANC-1 [9]): Active | fold change (FC) (PANC-1 [10]): 1.5 | Activity (PANC-1 [11]): Active

C[C@](O)(C(=O)/C=C/c1ccc(Cl)s1)C1CC[C@H]2[C@@H]3CCc4cc(O)ccc4[C@H]3CC[C@]12C (some centres undefined)
IC50 (ASPC1): > 50 µM | IC50 (PANC-1 [1]): 39.8 µM

Cc1ccc(/C=C/C(=O)[C@](C)(O)C2CC[C@H]3[C@@H]4CCc5cc(O)ccc5[C@H]4CC[C@]23C)s1 (some centres undefined)
IC50 (ASPC1): 46.5 µM | IC50 (PANC-1 [1]): > 50 µM

C[C@](O)(C(=O)/C=C/c1ccc(Cl)s1)C1CC[C@H]2[C@@H]3CCc4cc(OS(N)(=O)=O)ccc4[C@H]3CC[C@]12C (some centres undefined)
IC50 (ASPC1): > 50 µM | IC50 (PANC-1 [1]): > 50 µM

COc1ccc2c(c1)CC[C@@H]1[C@@H]2CC[C@]2(C)C([C@@](C)(O)C(=O)/C=C/c3ccc(Cl)s3)CC[C@@H]12 (some centres undefined)
IC50 (ASPC1): > 50 µM | IC50 (PANC-1 [1]): 33.4 µM

COc1ccc2c(c1)CC[C@@H]1[C@@H]2CC[C@]2(C)C([C@@](C)(O)C(=O)/C=C/c3ccc(Cl)o3)CC[C@@H]12 (some centres undefined)
IC50 (ASPC1): 40.2 µM | IC50 (PANC-1 [1]): > 50 µM

C[C@](O)(C(=O)/C=C/c1cccs1)C1CC[C@H]2[C@@H]3CCc4cc(O)ccc4[C@H]3CC[C@]12C (some centres undefined)
IC50 (ASPC1): > 50 µM | IC50 (PANC-1 [1]): 41.7 µM

COc1ccc2c(c1)CC[C@@H]1[C@@H]2CC[C@]2(C)C([C@@](C)(O)C(=O)/C=C/c3ccc(C)s3)CC[C@@H]12 (some centres undefined)
IC50 (ASPC1): > 50 µM | IC50 (PANC-1 [1]): > 50 µM

C[C@](O)(C(=O)/C=C/c1cccs1)C1CC[C@H]2[C@@H]3CCc4cc(OS(N)(=O)=O)ccc4[C@H]3CC[C@]12C (some centres undefined)
IC50 (ASPC1): 48.4 µM | IC50 (PANC-1 [1]): 53 µM

Cc1ccc(/C=C/C(=O)[C@](C)(O)C2CC[C@H]3[C@@H]4CCc5cc(OS(N)(=O)=O)ccc5[C@H]4CC[C@]23C)s1 (some centres undefined)
IC50 (ASPC1): 38.4 µM | IC50 (PANC-1 [1]): > 50 µM

COc1ccc2c(c1)CC[C@@H]1[C@@H]2[C@H](O)C[C@]2(C)C([C@@](C)(O)C(=O)/C=C/c3ccc(C(F)(F)F)cc3)CC[C@@H]12 (some centres undefined)
IC50 (ASPC1): 11.5 µM | IC50 (PANC-1 [1]): 6.52 µM | IC50 (BXPC-3): 6.07 µM | IC50 (PANC-1 [2]): 37.5 µM | IC50 (PANC-1 [3]): > 50 µM | fold change (FC) (PANC-1 [4]): 1.5 | Activity (PANC-1 [5]): Active | Activity (PANC-1 [12]): Active | Activity (PANC-1 [9]): Active | fold change (FC) (PANC-1 [10]): 1.5 | Activity (PANC-1 [11]): Active

C[C@](O)(C(=O)/C=C/c1ccc(Cl)o1)C1CC[C@H]2[C@@H]3CCc4cc(O)ccc4[C@H]3CC[C@]12C (some centres undefined)
IC50 (ASPC1): > 50 µM | IC50 (PANC-1 [1]): 10.2 µM

Nc1ccn([C@@H]2O[C@H](CO)[C@@H](O)C2(F)F)c(=O)n1 [GEMCITABINE]
IC50 (ASPC1): > 50 µM | IC50 (PANC-1 [1]): > 50 µM | IC50 (BXPC-3): > 50 µM | Activity (PANC-1 [13]): 20% | Activity (PANC-1 [14]): Active | Activity (PANC-1 [15]): Active | Activity (PANC-1 [16]): 20%

COc1ccc2c(c1)CC[C@@H]1[C@@H]2[C@H](O)C[C@]2(C)C([C@@](C)(O)C(=O)/C=C/C(C)(C)O)CC[C@@H]12 (some centres undefined)
IC50 (ASPC1): 17.3 µM | IC50 (PANC-1 [1]): 11.8 µM | IC50 (BXPC-3): 10.1 µM | IC50 (PANC-1 [2]): 37.5 µM | IC50 (PANC-1 [3]): 39.5 µM | fold change (FC) (PANC-1 [4]): 1.5 | Activity (PANC-1 [5]): Active | Activity (PANC-1 [12]): Active | Activity (PANC-1 [9]): Active | fold change (FC) (PANC-1 [10]): 1.5 | Activity (PANC-1 [11]): Active

COc1ccc2c(c1)CC[C@@H]1[C@@H]2CC[C@]2(C)C([C@@](C)(O)C(=O)/C=C/c3cccs3)CC[C@@H]12 (some centres undefined)
IC50 (ASPC1): > 50 µM | IC50 (PANC-1 [1]): 38.2 µM
